Results from ChEMBL document CHEMBL5244277, “A review upon medicinal perspective and designing rationale of DPP-4 inhibitors” (Bioorg Med Chem, 2021).
Values after ≈ are worked out from the molar mass of the structure shown. Blank lines part the entries; values can stand above or below the compound they belong to.

Experiments:
Dipeptidyl peptidase 4 [1] = target: T1, Dipeptidyl peptidase 4 (Homo sapiens, UniProt P27487); format: cell-based, Caco-2
Target sequence in this assay (P27487 whole entry): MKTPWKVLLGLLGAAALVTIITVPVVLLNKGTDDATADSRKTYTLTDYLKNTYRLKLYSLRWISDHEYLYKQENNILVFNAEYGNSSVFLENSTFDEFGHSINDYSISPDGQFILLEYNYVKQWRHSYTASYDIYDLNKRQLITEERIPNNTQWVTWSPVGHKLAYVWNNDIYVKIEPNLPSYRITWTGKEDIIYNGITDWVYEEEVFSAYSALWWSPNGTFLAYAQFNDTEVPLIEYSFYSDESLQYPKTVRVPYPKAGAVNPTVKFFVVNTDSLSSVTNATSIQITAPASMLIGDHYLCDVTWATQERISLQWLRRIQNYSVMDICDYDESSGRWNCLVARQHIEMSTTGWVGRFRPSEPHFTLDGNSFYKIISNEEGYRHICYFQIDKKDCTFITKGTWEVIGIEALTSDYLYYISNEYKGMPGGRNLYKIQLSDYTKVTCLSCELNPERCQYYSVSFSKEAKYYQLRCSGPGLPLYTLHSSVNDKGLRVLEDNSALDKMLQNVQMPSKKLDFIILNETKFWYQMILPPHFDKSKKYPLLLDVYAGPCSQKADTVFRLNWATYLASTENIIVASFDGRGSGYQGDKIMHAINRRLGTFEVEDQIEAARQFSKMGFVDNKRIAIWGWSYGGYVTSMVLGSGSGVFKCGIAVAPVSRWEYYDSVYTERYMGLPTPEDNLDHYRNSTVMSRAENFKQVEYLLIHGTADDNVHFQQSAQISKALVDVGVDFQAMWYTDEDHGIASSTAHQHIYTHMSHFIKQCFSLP

Mus musculus [2] = assay: Hypoglycemic activity in C57BL/6J mouse assessed as reduction in blood glucose level at 10 mg/kg, po measured at 20 to 80 mins by OGTT analysis; format: functional; set-up: scale not given: the % may be the effect or the level left; settings: time 20-80 min
Dipeptidyl peptidase 4 [3] = target: T1, Dipeptidyl peptidase 4; assay: Inhibition of human recombinant DPP-4 using H-Gly-Pro-aminomethylcoumarin as substrate
Target sequence in this assay (P27487 whole entry): as above

Dipeptidyl peptidase 4 [4] = target: T1, Dipeptidyl peptidase 4; assay: Inhibition of human recombinant DPP-4 using H-Gly-Pro-aminomethylcoumarin as substrate at 100 uM relative to control
Target sequence in this assay (P27487 whole entry, looked up): as the sequence (P27487 whole entry) above

Homo sapiens [5] = species: Homo sapiens; assay: Selectivity index, ratio of IC50 for human recombinant DPP-4 to IC50 for human recombinant DPP-8
Homo sapiens [6] = species: Homo sapiens; assay: Selectivity index, ratio of IC50 for human recombinant DPP-4 to IC50 for human recombinant DPP-9
[7] = Antioxidant activity assessed as DPPH radical scavenging activity; format: functional
[8] = AUC in C57BL/6J mouse at 20 mg/kg, po; format: ADME, organism-based; set-up: dose 20 mg/kg, route po; settings: in vivo
Mus musculus [9] = assay: Hypoglycemic activity in ICR mouse assessed as reduction in blood glucose level at 3 mg/kg; format: ADME, organism-based; set-up: scale not given: the % may be the effect or the level left; settings: in vivo
Mus musculus [10] = assay: Hypoglycemic activity in ICR mouse assessed as reduction in blood glucose level at 10 mg/kg; format: ADME, organism-based; set-up: scale not given: the % may be the effect or the level left; settings: in vivo
Homo sapiens [11] = species: Homo sapiens; assay: Selectivity index, ratio of IC50 for DPP-4 (unknown origin) to IC50 for DPP-8 (unknown origin)
[12] = Half life in mouse; format: ADME, organism-based; settings: in vivo
[13] = Half life in ICR mouse at 15 mg/kg; format: ADME, organism-based; settings: in vivo
[14] = Oral bioavailability in ICR mouse at 15 mg/kg; format: ADME, organism-based; settings: in vivo
[15] = target: T2, Voltage-gated inwardly rectifying potassium channel KCNH2 (Homo sapiens, UniProt Q12809); assay: Inhibition of hERG channel by patch clamp assay; format: toxicity
T2 sequence (Q12809 whole entry): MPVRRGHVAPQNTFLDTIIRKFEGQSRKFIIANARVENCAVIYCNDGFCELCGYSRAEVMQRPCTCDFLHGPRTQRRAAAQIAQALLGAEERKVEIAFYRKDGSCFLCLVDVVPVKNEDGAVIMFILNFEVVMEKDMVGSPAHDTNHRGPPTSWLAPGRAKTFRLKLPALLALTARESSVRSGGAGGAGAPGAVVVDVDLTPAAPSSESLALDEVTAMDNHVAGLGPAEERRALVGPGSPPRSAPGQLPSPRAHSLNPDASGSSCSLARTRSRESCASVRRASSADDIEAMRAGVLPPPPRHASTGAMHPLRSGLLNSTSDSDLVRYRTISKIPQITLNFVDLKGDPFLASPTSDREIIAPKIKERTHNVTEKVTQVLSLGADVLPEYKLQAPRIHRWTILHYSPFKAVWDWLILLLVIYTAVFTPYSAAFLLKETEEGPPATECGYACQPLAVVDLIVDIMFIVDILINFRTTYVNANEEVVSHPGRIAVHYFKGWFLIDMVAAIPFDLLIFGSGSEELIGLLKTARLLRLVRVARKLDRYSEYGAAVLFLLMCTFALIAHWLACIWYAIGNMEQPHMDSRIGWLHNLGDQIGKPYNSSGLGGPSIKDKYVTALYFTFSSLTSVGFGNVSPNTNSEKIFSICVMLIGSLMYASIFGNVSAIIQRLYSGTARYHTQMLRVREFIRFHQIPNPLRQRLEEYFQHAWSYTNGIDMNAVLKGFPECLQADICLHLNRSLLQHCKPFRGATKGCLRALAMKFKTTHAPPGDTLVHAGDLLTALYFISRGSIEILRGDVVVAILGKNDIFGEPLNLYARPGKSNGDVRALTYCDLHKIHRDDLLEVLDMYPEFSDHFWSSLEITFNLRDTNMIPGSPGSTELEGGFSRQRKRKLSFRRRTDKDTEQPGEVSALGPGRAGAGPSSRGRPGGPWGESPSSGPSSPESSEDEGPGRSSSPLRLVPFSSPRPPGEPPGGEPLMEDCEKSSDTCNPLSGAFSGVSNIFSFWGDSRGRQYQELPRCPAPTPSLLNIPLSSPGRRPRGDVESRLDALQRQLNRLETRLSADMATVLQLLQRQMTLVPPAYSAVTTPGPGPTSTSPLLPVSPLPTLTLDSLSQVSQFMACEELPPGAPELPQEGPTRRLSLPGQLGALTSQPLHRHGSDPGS

[16] = target: T2, Voltage-gated inwardly rectifying potassium channel KCNH2; assay: Inhibition of hERG by thallium flux assay; format: toxicity
[17] = Blood glucose AUC in ICR mouse at 15 mg/kg; settings: in vivo
Dipeptidyl peptidase 4 [18] = target: T1, Dipeptidyl peptidase 4
Target sequence in this assay (P27487 whole entry): as the sequence (P27487 whole entry) above

Dipeptidyl peptidase 4 [19] = target: T1, Dipeptidyl peptidase 4; remark: listed apart in the source
Target sequence in this assay (P27487 whole entry, looked up): as the sequence (P27487 whole entry) above

Dipeptidyl peptidase 4 [20] = target: T1, Dipeptidyl peptidase 4; remark: listed apart in the source
Target sequence in this assay (P27487 whole entry): as above

Dipeptidyl peptidase 4 [21] = target: T1, Dipeptidyl peptidase 4; assay: Inhibition of human recombinant DPP-4 at 100 uM using Gly-Pro-Aminomethylcoumarin as substrate by Spectra max fluorometer analysis relative to control
Target sequence in this assay (P27487 whole entry, looked up): as the sequence (P27487 whole entry) above

Mus musculus [22] = assay: Hypoglycemic activity in ICR mouse assessed as reduction in blood glucose level at 1 mg/kg; format: ADME, organism-based; set-up: scale not given: the % may be the effect or the level left; settings: in vivo
Mus musculus [23] = assay: Hypoglycemic activity in KKAy mouse assessed as reduction in blood glucose level at 10 mg/kg; format: ADME, organism-based; set-up: scale not given: the % may be the effect or the level left; settings: in vivo
Dipeptidyl peptidase 4 [24] = target: T1, Dipeptidyl peptidase 4; assay: Inhibition of DPP4 (unknown origin) using Gly-Pro-AMC as substrate incubated for 30 mins by spectroscopic analysis
Target sequence in this assay (P27487 whole entry): as above

Mus musculus [25] = assay: Antidiabetic activity in ICR mouse assessed as decrease in AUC of glucose at 10 mg/kg, po; format: functional; set-up: scale not given: the % may be the effect or the level left
Dipeptidyl peptidase 8 = Dipeptidyl peptidase 8 (Homo sapiens, UniProt Q6V1X1); assay: Inhibition of DPP-8 (unknown origin)
Dipeptidyl peptidase 8, sequence (Q6V1X1 whole entry): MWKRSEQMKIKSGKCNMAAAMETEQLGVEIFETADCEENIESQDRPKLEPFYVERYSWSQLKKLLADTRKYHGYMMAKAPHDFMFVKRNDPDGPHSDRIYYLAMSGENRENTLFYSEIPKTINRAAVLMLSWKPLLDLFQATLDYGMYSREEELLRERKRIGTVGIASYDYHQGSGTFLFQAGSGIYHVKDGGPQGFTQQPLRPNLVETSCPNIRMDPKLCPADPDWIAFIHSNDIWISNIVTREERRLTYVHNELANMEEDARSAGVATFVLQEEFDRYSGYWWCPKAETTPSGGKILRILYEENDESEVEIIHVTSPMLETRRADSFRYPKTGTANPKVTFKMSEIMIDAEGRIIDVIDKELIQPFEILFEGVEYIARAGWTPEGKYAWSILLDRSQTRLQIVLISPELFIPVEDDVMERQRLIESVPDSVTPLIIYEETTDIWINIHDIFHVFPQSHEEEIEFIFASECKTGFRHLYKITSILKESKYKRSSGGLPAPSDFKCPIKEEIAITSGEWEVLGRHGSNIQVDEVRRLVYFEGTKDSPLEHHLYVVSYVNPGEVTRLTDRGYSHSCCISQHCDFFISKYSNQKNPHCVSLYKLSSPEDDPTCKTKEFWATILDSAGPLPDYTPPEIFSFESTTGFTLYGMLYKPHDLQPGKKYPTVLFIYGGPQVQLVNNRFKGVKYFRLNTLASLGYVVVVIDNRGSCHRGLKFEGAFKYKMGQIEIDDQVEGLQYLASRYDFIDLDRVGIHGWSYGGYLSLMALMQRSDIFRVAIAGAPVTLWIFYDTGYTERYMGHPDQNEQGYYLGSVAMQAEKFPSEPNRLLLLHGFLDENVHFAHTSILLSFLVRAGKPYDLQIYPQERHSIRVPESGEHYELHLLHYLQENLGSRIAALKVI

Dipeptidyl peptidase 9 = Dipeptidyl peptidase 9 (Homo sapiens, UniProt Q86TI2); assay: Inhibition of DPP-9 (unknown origin)
Dipeptidyl peptidase 9, sequence (Q86TI2 whole entry): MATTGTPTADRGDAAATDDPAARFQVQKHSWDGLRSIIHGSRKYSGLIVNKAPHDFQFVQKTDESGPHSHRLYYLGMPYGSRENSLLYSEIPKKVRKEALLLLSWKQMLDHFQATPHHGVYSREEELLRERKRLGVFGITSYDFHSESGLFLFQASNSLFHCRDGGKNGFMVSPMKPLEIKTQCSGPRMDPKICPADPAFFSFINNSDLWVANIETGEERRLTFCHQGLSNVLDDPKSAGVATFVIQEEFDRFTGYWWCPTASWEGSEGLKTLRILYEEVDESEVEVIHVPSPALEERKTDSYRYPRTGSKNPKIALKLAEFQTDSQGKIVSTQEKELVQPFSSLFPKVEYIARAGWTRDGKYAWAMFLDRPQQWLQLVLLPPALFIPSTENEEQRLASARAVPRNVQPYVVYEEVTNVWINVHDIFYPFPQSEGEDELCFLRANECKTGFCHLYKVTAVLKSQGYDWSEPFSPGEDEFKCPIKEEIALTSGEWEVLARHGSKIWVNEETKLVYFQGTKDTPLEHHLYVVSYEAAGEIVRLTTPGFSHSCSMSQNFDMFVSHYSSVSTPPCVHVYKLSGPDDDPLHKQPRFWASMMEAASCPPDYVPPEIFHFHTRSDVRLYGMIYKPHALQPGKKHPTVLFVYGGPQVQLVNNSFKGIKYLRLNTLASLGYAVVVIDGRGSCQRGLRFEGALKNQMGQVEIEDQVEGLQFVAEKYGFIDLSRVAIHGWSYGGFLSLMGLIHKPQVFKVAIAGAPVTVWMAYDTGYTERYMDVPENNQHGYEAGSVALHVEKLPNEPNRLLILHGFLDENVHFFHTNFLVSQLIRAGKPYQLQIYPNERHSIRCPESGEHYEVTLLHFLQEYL

Mus musculus [26] = assay: Antidiabetic activity in ICR mouse assessed as decrease in AUC of glucose at 3 mg/kg, po; format: functional; set-up: scale not given: the % may be the effect or the level left

IC50 (Dipeptidyl peptidase 4 [1]): 0.87 nM
Structure (SMILES): N[C@@H](CC(=O)N1CCC[C@H]1CNC(=O)c1cc(S(=O)(=O)N2CCC2)c(F)cc1F)[C@H]1CCc2cc(F)c(F)cc21

IC50 (Dipeptidyl peptidase 4 [3]): 290 nM | inhibition (Dipeptidyl peptidase 4 [4]): 59% | Ratio IC50 (Homo sapiens [5]): > 340 | Ratio IC50 (Homo sapiens [6]): > 340
Structure (SMILES): Cc1ccccc1-c1nc2ccccn2c1CN

IC50 [7]: 34.69 µg/mL (≈ 197 µM)
Structure (SMILES): O=C1O[C@H]([C@@H](O)CO)C(O)=C1O [ASCORBIC ACID]

AUC [8]: 21500 ng·h/mL | Activity (Mus musculus [9]): 33.48% | Activity (Mus musculus [10]): 33.51%
Structure (SMILES): N#Cc1ccc(NCCNCC(=O)N2CCC[C@H]2C#N)nc1

half-life [13]: 2.03 h | bioavailability [14]: 53.2% | glucose AUC [17]: 795 mmol/L/min
Structure (SMILES): N#C[C@@H]1C[C@H](F)CN1C(=O)[C@@H](N)Cc1cc(Cl)c(Cl)cc1Cl
IC50 [15]: > 40000 nM | IC50 [16]: 97700 nM

IC50 (Dipeptidyl peptidase 4 [18]): 185 nM
Structure (SMILES): CC#CCn1c(N2CCC[C@@H](N)C2)cc(=O)n(Cc2cn(-c3ccccc3)nn2)c1=O

IC50 (Dipeptidyl peptidase 4 [1]): 0.87 nM
Structure (SMILES): N[C@@H](CC(=O)N1CCC[C@H]1CNC(=O)c1cc(S(=O)(=O)N2CCCCC2)c(F)cc1F)[C@H]1CCc2cc(F)c(F)cc21

Activity (Mus musculus [22]): 24.1% | Activity (Mus musculus [23]): 30% | glucose AUC [17]: 904 mmol/L/min
Structure (SMILES): N#C[C@@H]1CCCN1C(=O)CNC12CC3CC(CC(O)(C3)C1)C2 [VILDAGLIPTIN]

inhibition (Dipeptidyl peptidase 4 [21]): 1.3%
Structure (SMILES): CCOC(=O)c1ccc2cc(OCC(=O)N3CCCCC3)c(=O)oc2c1

IC50 (Dipeptidyl peptidase 4 [24]): 620 nM
Structure (SMILES): O=C([C@H]1CC[C@@H](n2cc(-c3ccccc3O)nn2)C1)N1CCC(F)(F)C1

Ratio IC50 (Homo sapiens [11]): > 1000 | half-life [12]: < 24 h
Structure (SMILES): N#C[C@@H]1CCCN1C(=O)[C@@H](N)CCC(=O)N1CCn2nc(C(F)(F)F)nc2C1.O=C(O)C(F)(F)F

AUC [8]: 54000 ng·h/mL
Structure (SMILES): N#Cc1ccc(C(=O)NCCCC(=O)N2CCC[C@H]2C#N)cc1

IC50 (Dipeptidyl peptidase 4 [1]): 0.87 nM
Structure (SMILES): N[C@@H](CC(=O)N1CCC[C@H]1CNC(=O)c1ccc(F)c(S(N)(=O)=O)c1)[C@H]1CCc2cc(F)c(F)cc21

AUC [8]: 17400 ng·h/mL
Structure (SMILES): N#C[C@@H]1CCCN1C(=O)CCCNC(=O)c1ccc(C(F)(F)F)cc1

Ki (Dipeptidyl peptidase 8): > 30000 nM | Ki (Dipeptidyl peptidase 9): > 30000 nM
Structure (SMILES): Cc1nc2cc(-c3ccccc3Cl)nn2c(-c2ccc(Cl)cc2Cl)c1CO

Ki (Dipeptidyl peptidase 8): > 30000 nM | Ki (Dipeptidyl peptidase 9): > 30000 nM
Structure (SMILES): Cc1nc2cc(-c3ccccc3)nn2c(-c2ccc(Cl)cc2Cl)c1CO

Continued, compound first:

Structure (SMILES): CN1CCN(S(=O)(=O)c2cccc(C(=O)NC[C@@H]3CCCN3C(=O)C[C@H](N)[C@H]3CCc4cc(F)c(F)cc43)c2)CC1
IC50 (Dipeptidyl peptidase 4 [1]): 1.1 nM | Activity (Mus musculus [2]): 34%

Structure (SMILES): CCN(CC)S(=O)(=O)c1cc(C(=O)NC[C@@H]2CCCN2C(=O)C[C@H](N)[C@H]2CCc3cc(F)c(F)cc32)c(F)cc1F
IC50 (Dipeptidyl peptidase 4 [1]): 0.87 nM

Structure (SMILES): CS(=O)(=O)c1cccc(C(=O)NC[C@@H]2CCCN2C(=O)C[C@H](N)[C@H]2CCc3cc(F)c(F)cc32)c1
IC50 (Dipeptidyl peptidase 4 [1]): 1.06 nM | Activity (Mus musculus [2]): 40%

Structure (SMILES): CCN(CC)S(=O)(=O)c1cc(C(=O)NC[C@@H]2CCCN2C(=O)C[C@H](N)[C@H]2CCc3cc(F)c(F)cc32)ccc1F
IC50 (Dipeptidyl peptidase 4 [1]): 0.87 nM

Structure (SMILES): N#C[C@@H]1CCCN1C(=O)[C@@H](N)CCC(=O)N1CCn2c(nnc2C(F)(F)F)C1.O=C(O)C(F)(F)F
Ratio IC50 (Homo sapiens [11]): > 1000 | half-life [12]: < 24 h

Structure (SMILES): O=[N+]([O-])c1cccc(/C=N/N2C(c3ccccc3)=Nc3ccc(I)cc3C2Nc2nccs2)c1 (stereo unspecified)
IC50 [7]: 51.23 µg/mL (≈ 88.3 µM)

Structure (SMILES): NNC1=NC(N2C(=O)CSC2=O)=NC(NN)N1 (stereo unspecified)
IC5 (Dipeptidyl peptidase 4 [19]): 6.25 µM

Structure (SMILES): Cc1c(-c2cc(S(=O)(=O)c3ccccc3)n[nH]2)c(=O)n(C)n1C
IC50 (Dipeptidyl peptidase 4 [20]): < 15 nM

Structure (SMILES): O=C(CNc1cc2ccc3ccccc3c2oc1=O)Nc1ccc(F)cc1
inhibition (Dipeptidyl peptidase 4 [21]): 26.7%

Structure (SMILES): Cn1c(=O)cc(N2CCC[C@@H](N)C2)n(Cc2ccccc2C#N)c1=O [ALOGLIPTIN]
Activity (Mus musculus [25]): 42.5%

Structure (SMILES): CC#CCn1c(N2CCC[C@@H](N)C2)cc(=O)n(Cc2cn(CCC(=O)OC)nn2)c1=O
IC50 (Dipeptidyl peptidase 4 [18]): 64 nM | Activity (Mus musculus [26]): 31.4% | Activity (Mus musculus [25]): 40.4%
